Assay results reported in patent US20200079750A1, “COMPOUND OR SALT THEREOF, ANTIVIRAL AGENT, AND PHARMACEUTICAL COMPOSITION” (priority 2017, published 2020).

Assays:
[1] = tested on: Towne strain of human cytomegalovirus (HCMV); assay: Evaluation of antiviral activity: viral load of HCMV-infected HEL cells by the plaque method; assay type: cell-based; details: for EC50: Human betaherpesvirus 5, HEL, 144 h, read-out: EC50 value (anti-HCMV effect)
Procedure: Diploid fibroblasts derived from human embryonic lung (Human embryonic lung fibroblasts; HEL cells) cultured in a 9.6 cm^2 petri dish until they became confluent using Dulbecco's Modified Eagle Medium (DMEM) to which 8% fetal calf serum (FCS) was added were prepared. The HEL cells were adsorbed and infected with a Towne strain of human cytomegalovirus (HCMV) with a multiplicity of infection (MOI) of 1, and cultured at 37° C. for 1 hour to obtain HCMV-infected cells.
The compound of the present invention or tricin which were serially diluted with dimethyl sulfoxide (compound concentration: 0.001, 0.01, 0.1, 1 and 10 μM) was added to the above HCMV-infected cells and cultured for 6 days. The number of infectious HCMV particles produced in the culture supernatant (viral load) was determined by the plaque method.
The plaque method was performed in the following manner. After the HEL cells cultured in a 24-well plate until they became confluent were adsorbed and infected with the culture supernatant which was 10-fold serially diluted at 37° C. for 1 hour, the 2% FCS and 0.4% agar-containing DMEM media were overlaid and then cultured. Several days (6 to 12 days) after the initiation of culture, the number of plaques appeared was counted under a microscope, and the viral load was measured.
A lower value of the relative value (the viral load against control) means a higher antiviral activity.
Using the compound obtained as mentioned above (the compound of the present invention), tricin and ganciclovir, the antiviral activity of each compound was evaluated in the same manner as in the above <Evaluation of Antiviral Activity—1>.

HEL cells = assay: Evaluation of cytotoxicity to HEL cells by LDH release assay; assay type: cell-based, human; details: 37° C. for 5 days, concentrations of at least up to 10 μM, FIG. 3
Procedure: Using the compound obtained as mentioned above (the compound of the present invention), tricin and flavopiridol, the cytotoxicity to the HEL cells was evaluated in accordance with the following procedure. Flavopiridol is a control compound in this Test Example, which is known to have toxicity although it functions as an antiviral agent.
The HEL cells were cultured at 37° C. for 5 days in the presence or absence of the above each compound. The proportion of viable cells after culture was calculated by the LDH release assay. The kit (trade name “Cyto Tox 96 (registered trademark) assay”, manufactured by Promega Corporation) was used for the assay. The test was repeated three times, and data were represented as mean±SD.

Nc1nc(O)c2ncn(COC(CO)CO)c2n1 [ganciclovir, reference compound]
EC50 [1]: 27.5 nM

COc1cc(-c2cc(=O)c3ccc(F)cc3o2)cc(OC)c1O [the compound of the present invention, 7-fluoro-4′-hydroxy-3′,5′-dimethoxyflavone]
cytotoxicity (proportion of viable cells) (HEL cells): no cytotoxicity | antiviral activity (viral load against control) ([1]; FIG. 1, compared with tricin, clearly observed at 0.001 to 1.000 μM): remarkably higher antiviral activity than tricin | antiviral activity (viral load against control) ([1]; FIG. 2, compared with tricin and ganciclovir, clearly observed at 0.1 to 1,000 nM): remarkably higher antiviral activity than tricin and ganciclovir | EC50 [1]: 0.13 nM | anti-HCMV effect higher than that of ganciclovir ([1]; from EC50 values, versus ganciclovir): about 200 fold | anti-HCMV effect higher than that of tricin ([1]; from EC50 values, versus tricin): about 400 fold

COc1cc(-c2cc(=O)c3c(O)cc(O)cc3o2)cc(OC)c1O [tricin, 4′,5,7-trihydroxy-3′,5′-dimethoxyflavone, reference compound]
EC50 [1]: 54.3 nM
